How the values were obtained:
human serum protein = conditions: cited from earlier work
[1] = system: six vancomycin-susceptible strains of staphylococci and enterococci; assay: Effect of human serum on the MIC, serial dilution assay; format: cell-based
Excerpt: Another important property of the formula I compounds is the low binding of the compounds to serum proteins when compared with other glycopeptide antibiotics. […] The ratio of the MIC measured in the presence of added serum to the MIC measured in the absence of added serum ("ratio") is an indication of the degree of serum binding. […] A ratio that is greater than one, for example about ten, indicates the compound has a high degree of serum binding.

CN[C@H](CC(C)C)C(=O)N[C@H]1C(=O)N[C@@H](CC(N)=O)C(=O)N[C@H]2C(=O)N[C@H]3C(=O)N[C@H](C(=O)N[C@H](C(=O)O)c4cc(O)cc(O)c4-c4cc3ccc4O)[C@H](O)c3ccc(c(Cl)c3)Oc3cc2cc(c3O[C@@H]2O[C@H](CO)[C@@H](O)[C@H](O)[C@H]2O[C@H]2C[C@](C)(N)[C@H](O)[C@H](C)O2)Oc2ccc(cc2Cl)[C@H]1O [vancomycin]
level of human serum protein binding (human serum protein): 55%

Teicoplanin [reference compound]
MIC determined in absence of added serum ([1]; absence (-) of human serum): 0.25
ratio of the MIC in the presence of added serum to the MIC in the absence of added serum ([1]; indication of the degree of serum binding): 12.6
MIC determined in presence of human serum ([1]; presence (+) of human serum, broth supplemented with human serum to 40%): 3.8
level of human serum protein binding (human serum protein): about 90%

Source: patent US5591714A, “Derivatives of A82846” (priority 1994, dated 1997)
